Measured values taken from patent publication US20230077155A1, “TETRAHYDROISOQUINOLINE COMPOUND AS POTASSIUM CHANNEL MODULATOR AND PREPARATION AND APPLICATION THEREOF” (Shanghai Zhimeng Biopharma, Inc., priority 2020, published 2023).

Columns and labels:
[1] = target: T1, KCNQ2 potassium channel (CHO-KCNQ2 cells) (Homo sapiens, UniProt O43526); assay: Potassium ion channel opener activity test (FDSS/μCELL detection, FluxOR thallium flux); type: cell-based; conditions: for Maximum agonist rate (%): highest test concentration 100 μM
T1 construct: expressed in transfected cells; host or cells: CHO cells stably expressing KCNQ2, kept under G418 selection
T1 sequence (O43526 whole entry): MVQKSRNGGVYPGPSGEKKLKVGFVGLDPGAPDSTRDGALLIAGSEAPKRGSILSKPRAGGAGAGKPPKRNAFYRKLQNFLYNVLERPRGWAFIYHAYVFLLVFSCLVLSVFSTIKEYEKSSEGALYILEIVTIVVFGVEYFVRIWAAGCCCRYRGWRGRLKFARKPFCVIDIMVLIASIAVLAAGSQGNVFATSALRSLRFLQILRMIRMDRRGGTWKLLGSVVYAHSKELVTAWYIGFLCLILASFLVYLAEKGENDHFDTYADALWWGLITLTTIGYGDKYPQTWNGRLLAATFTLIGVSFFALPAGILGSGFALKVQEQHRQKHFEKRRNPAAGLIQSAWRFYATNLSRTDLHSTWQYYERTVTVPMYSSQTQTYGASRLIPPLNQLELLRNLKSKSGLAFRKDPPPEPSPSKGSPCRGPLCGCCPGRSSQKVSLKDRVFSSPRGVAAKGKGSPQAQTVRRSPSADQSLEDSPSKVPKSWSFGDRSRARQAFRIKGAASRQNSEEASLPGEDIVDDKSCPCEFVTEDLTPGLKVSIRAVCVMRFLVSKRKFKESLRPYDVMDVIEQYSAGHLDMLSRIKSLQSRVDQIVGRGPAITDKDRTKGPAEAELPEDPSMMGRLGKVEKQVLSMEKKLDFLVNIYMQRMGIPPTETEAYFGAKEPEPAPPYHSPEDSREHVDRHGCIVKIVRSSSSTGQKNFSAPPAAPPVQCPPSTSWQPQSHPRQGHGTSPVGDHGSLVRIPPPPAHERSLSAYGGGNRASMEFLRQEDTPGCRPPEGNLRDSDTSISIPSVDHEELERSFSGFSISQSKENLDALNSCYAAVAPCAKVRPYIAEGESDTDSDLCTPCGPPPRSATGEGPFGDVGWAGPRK
Method: Potassium Ion Channel Opener Activity Test (FDSS/μCELL Detection)
1.1 Experimental procedure
Cell preparation: CHO-KCNQ2 cells were cultured in a 175 cm^2 culture flask, and when the cell density grew to 60-80%, the culture medium was removed, washed with 7 mL PBS (Phosphate Buffered Saline) once, then 3 mL 0.25% Trypsin was added to digest. After the digestion was completed, 7 mL culture medium (90% DMEM/F12+10% FBS±500 μg/mL G418) was added to neutralize, centrifugated for 3 minutes at 800 rpm. The supernatant was aspirated, then 5 mL culture medium was added to resuspend, and then the cells were counted.
Cell plating: according to the results of cell counting, the density was adjusted to 3×10^4 cells/well. After standing at room temperature for 30 minutes, the plate was placed in a 37° C. CO2 incubator and incubated overnight for 16-18 hours. The cell density reached about 80%.
Fluorescent dye incubation: the cell culture medium was discarded, 80 μL/well loading buffer was added, and incubated in the dark at room temperature for 60 minutes. Compound incubation: the loading buffer was discarded, 80 μL/well prepared compound solution was added, and incubated in the dark at room temperature for 20 minutes.
Fluorescence data collection: FDSS/μCELL instrument was used for real-time fluorescence signal recording with excitation wavelength at 480 nm and emission wavelength at 540 nm, recorded 1 time per second, and 20 μL/well stimulation buffer was started to add after recording for 10 seconds for baseline, and then continued to record until the end of 180 seconds.
The above buffer come from a commercially available kit named FluxOR potassium ion channel assay.
20 mM DMSO compound mother liquor was prepared, 10 μL of 20 mM compound mother liquor was took into 20 μL DMSO solution, serially diluted 3 times to 8 intermediate concentrations; then the intermediate concentrations of the compound was took out and added to the test buffer, diluted for 200 times to get the final concentration to be tested, 80 μL was took out and added to the test plate.
The highest test concentration was 100 μM, followed by […], 33.33, 11.11, 3.70, 1.23, 0.41, 0.137, 0.045 μM, total 8 concentrations. Each concentration set 3 duplicate wells.
This concentration of DMSO has no effect on the KCNQ2 potassium channel.
Experimental data was analyzed by Excel 2007 and GraphPad Prism 5.0 software, and the ratio of 180 seconds was calculated to calculate the agonism effect. The agonism effect of the compound was calculated by the following formula: […]
Reagent: FluxORTM Detection Kit (Invitrogen, Cat #F0017)
The experimental data in the report must meet the following criteria: Z′ Factor>0.5
2. Results: See Table 1, wherein the smaller the EC50 is, the higher the activity of the corresponding compound is.

[2] = Pharmacokinetics of rats, single intravenous and oral administration, plasma; type: in vivo; conditions: male SD rats; for F: gavage 5 mg/kg vs intravenous 0.3 mg/kg; for AUC(0-inf) / AUC(0-t) / Cmax / Tmax / half-life: rat, plasma
Method: Study on Pharmacokinetics of Rats
1) Research purpose: To obtain the pharmacokinetic characteristics of the compounds to be tested in male SD rats.
(§1) Pharmacokinetic study: 6 healthy male SD rats (SPF grade) were divided into 2 groups and 3 rats/group. After fasting overnight (only oral administration group), compound A was administrated 0.3 mg/kg intravenously and 5 mg/kg orally, blood was collected by jugular vein puncture at time points 0.083 (IV only), 0.25, 0.5, 1, 2, 4, 6 (PO only), 8 and 24 hours, and at least 0.3 mL of whole blood was collected to EDTA-K2 anticoagulant tube. Plasma was centrifuged (6000 rmp, 8 minutes, 4° C.) within half an hour and frozen at −20° C. for later use.
(§2) Experimental results: According to the blood drug concentration data obtained, the non-compartmental model of WinNonlin® 7.0 software (Pharsight, USA) was used to calculate the pharmacokinetic parameters after administration.

[3] = Brain-blood ratio study in mice after single oral administration; type: in vivo; conditions: mouse, brain and plasma, male ICR mice, single oral 10 mg/kg, read-out: Cerebral blood ratio; for Kp at 2 h: time point 2 h; for Kp at 4 h: time point 4 h
Method: Brain-blood ratio study: 6 healthy male ICR mice (body weight range 18-22 g) were taken and divided into 2 groups and 3 mice/group. After fasting overnight, the compound to be tested (10 mg/kg) was administrated orally respectively. Blood was taken through cardiac puncture at time points 2 and 4 hours, at least 0.5 mL of whole blood was collected to EDTA-K2 anticoagulant tube. Plasma was centrifuged (6000 rpm, 8 minutes, 4° C.) within half an hour and frozen at −20° C. for later use. At the same time, the brain tissue was collected, rinsed with normal saline, then sucked to dryness with absorbent paper, weighed, and frozen at −20° C. for later use.
The cerebral blood ratio is very important to nerve drugs, and it can be seen from Table 3 that the compounds of the present invention have excellent cerebral blood ratio, which will bring better drug efficacy and excellent safety. By comparing the cerebral blood ratios of compound A, compound 1, compound B and compound J, it can be seen that after the tert-butyl of compound A or compound B has been changed into […]

[4] = Pharmacokinetics of mice, single intravenous and oral administration, plasma; type: in vivo; conditions: male ICR mice; for F: gavage 10 mg/kg vs intravenous; for AUC(0-inf) / AUC(0-t) / Cmax / Tmax / half-life: mouse, plasma
Method: Study on Pharmacokinetics of Mice
1) Research purposes: In order to obtain the pharmacokinetic characteristics and blood-brain barrier of the tested compound in male ICR mice
as §1, with “Six” for “Pharmacokinetic study: 6”, “ICR mice (body weight range 18-22 g)” for “SD rats (SPF grade)”, “were taken and” for “were”, “mice/group.” for “rats/group.”, “[…],” for “compound A was administrated 0.3 mg/kg intravenously and 5 mg/kg orally,”, “rpm,” for “rmp,”
as §2

[5] = intravenous 1 mg/kg (footnote *)

| SMILES | EC50 [1] | Maximum agonist rate (%) [1] | F [2] | AUC(0-inf) ([2]; po, gavage 5 mg/kg) | AUC(0-t) ([2]; po, gavage 5 mg/kg) | Cmax ([2]; po, gavage 5 mg/kg) | Tmax ([2]; po, gavage 5 mg/kg) | half-life ([2]; po, gavage 5 mg/kg) | AUC(0-inf) ([2]; intravenous 0.3 mg/kg) | AUC(0-t) ([2]; intravenous 0.3 mg/kg) | Cmax ([2]; intravenous 0.3 mg/kg) | Tmax ([2]; intravenous 0.3 mg/kg) | Kp at 2 h [3] | Kp at 4 h [3] | F [4] | AUC(0-inf) ([4]; po, gavage 10 mg/kg) | AUC(0-t) ([4]; po, gavage 10 mg/kg) | Cmax ([4]; po, gavage 10 mg/kg) | Tmax ([4]; po, gavage 10 mg/kg) | half-life ([4]; po, gavage 10 mg/kg) | further results |
| --- | --- | --- | --- | --- | --- | --- | --- | --- | --- | --- | --- | --- | --- | --- | --- | --- | --- | --- | --- | --- | --- |
| Cc1cc2c(c(C)c1NC(=O)CC1(C)CC1)CCN(c1ccc(C#N)cc1)C2 [Compound O] | 780 nM | 29.43% |  |  |  |  |  |  |  |  |  |  |  |  |  |  |  |  |  |  |  |
| Cc1cc2c(c(C)c1NC(=O)CC(C)(C)C)CCN(c1ccc(F)cc1)C2 [Compound A] | 440 nM | 37.97% | 38.93% | 1280 ng·h/mL | 909 ng·h/mL | 154 ng/mL | 90 min | 184 min | 144 ng·h/mL | 140 ng·h/mL | 332 ng/mL | 4.8 min | 2.3 | 2.8 | 33.79% | 793 ng·h/mL | 792 ng·h/mL | 142 ng/mL | 40.2 min | 2.61 h | half-life ([2]; intravenous 0.3 mg/kg): 59.4 min; AUC(0-inf) ([4]; intravenous 0.5 mg/kg): 118 ng·h/mL; AUC(0-t) ([4]; intravenous 0.5 mg/kg): 117 ng·h/mL; Cmax ([4]; intravenous 0.5 mg/kg): 270 ng/mL; Tmax ([4]; intravenous 0.5 mg/kg): 4.8 min; half-life ([4]; intravenous 0.5 mg/kg): 0.99 h |
| Cc1cc2c(c(C)c1NC(=O)CC(C)(C)C)CCN(c1ccc(F)cc1F)C2 [Compound B] | 160 nM | 37.5% | 43.63% | 1080 ng·h/mL | 1070 ng·h/mL | 128 ng/mL | 240 min | 208 min | 149 ng·h/mL | 147 ng·h/mL | 352 ng/mL | 4.8 min | 0.99 | 0.72 | 88.56% | 1430 ng·h/mL | 1400 ng·h/mL | 776 ng/mL | 15 min | 2.64 h | half-life ([2]; intravenous 0.3 mg/kg): 120 min; AUC(0-inf) [4, 5]: 161 ng·h/mL; AUC(0-t) [4, 5]: 158 ng·h/mL; Cmax [4, 5]: 405 ng/mL; Tmax [4, 5]: 4.8 min; half-life [4, 5]: 0.94 h |
| Cc1cc2c(c(C)c1NC(=O)CC1(C)CC1)CCN(c1ccc(C(F)(F)F)cc1)C2 [Compound P] | 34 nM | 38.22% |  |  |  |  |  |  |  |  |  |  | 6.4 | 5.96 | 83.77% | 30900 ng·h/mL | 5990 ng·h/mL | 315 ng/mL | 520 min | 84.3 h | AUC(0-inf) ([4]; intravenous 0.5 mg/kg): 383 ng·h/mL; AUC(0-t) ([4]; intravenous 0.5 mg/kg): 357 ng·h/mL; Cmax ([4]; intravenous 0.5 mg/kg): 382 ng/mL; Tmax ([4]; intravenous 0.5 mg/kg): 4.8 min; half-life ([4]; intravenous 0.5 mg/kg): 2.67 h |
| Cc1cc2c(c(C)c1NC(=O)CC1(C)CC1)CCN(c1ccc(F)cc1)C2 [Compound I] | 440 nM | 38.3% | 30.11% | 855 ng·h/mL | 822 ng·h/mL | 221 ng/mL | 30 min | 375 min | 166 ng·h/mL | 164 ng·h/mL | 345 ng/mL | 4.8 min | 6 | 5.8 | 24.6% | 539 ng·h/mL | 528 ng·h/mL | 192 ng/mL | 19.8 min | 3.86 h | half-life ([2]; intravenous 0.3 mg/kg): 104 min; AUC(0-inf) ([4]; intravenous 0.5 mg/kg): 108 ng·h/mL; AUC(0-t) ([4]; intravenous 0.5 mg/kg): 107 ng·h/mL; Cmax ([4]; intravenous 0.5 mg/kg): 299 ng/mL; Tmax ([4]; intravenous 0.5 mg/kg): 4.8 min; half-life ([4]; intravenous 0.5 mg/kg): 0.86 h |
| Cc1cc2c(c(C)c1NC(=O)CC1(C(F)(F)F)CC1)CCN(c1ccc(F)cc1)C2 [Compound A6] | 290 nM | 17.08% |  |  |  |  |  |  |  |  |  |  |  |  |  |  |  |  |  |  |  |
| Cc1cc2c(c(C)c1NC(=O)CC1(C)CC1)CCN(c1ccc(Br)cc1)C2 [Compound Y] | 200 nM | 37.96% |  |  |  |  |  |  |  |  |  |  |  |  |  |  |  |  |  |  |  |
| Cc1cc2c(c(C)c1NC(=O)CC1(C)CC1)CCN(c1ccc(I)cc1)C2 [Compound X] | 72 nM | 28.94% |  |  |  |  |  |  |  |  |  |  |  |  |  |  |  |  |  |  |  |
| Cc1cc2c(c(C)c1NC(=O)CC1(C)CC1)CCCN(c1ccc(F)cc1)C2 [Compound A2] | 130 nM | 44.53% |  |  |  |  |  |  |  |  |  |  |  |  |  |  |  |  |  |  |  |
| Cc1cc2c(c(C)c1NC(=O)CC1(C)CC1)CCN(c1ccccc1F)C2 [Compound A1] | 730 nM | 35.84% |  |  |  |  |  |  |  |  |  |  |  |  |  |  |  |  |  |  |  |
